Data on 34 molecules can be found in the C3SDB collision cross section collection.

The conditions of data set [1]: instrument: TW, calibrated with polyalanine.
For data set [2] the following is noted: instrument: TW, calibrated with phosphatidylcholines (ESI+) and phosphatidylethanolamines (ESI-).
The conditions of data set [3]: [M-H]-; instrument: DT; stepped-field.
For data set [4] the following is noted: instrument: TW, calibrated with phosphatidylcholines (ESI+) and phosphatidylethanolamines (ESI-). This is another data set of the same source.
For data set [5] the following is noted: instrument: DT, single field, calibrated with Agilent tune mix (Agilent).

Where “and” joins values, the source holds several entries; their conditions need not be identical. Equal values may be shown once.

On to `Nc1ncnc2c1ncn2[C@@H]1O[C@H](COP(=O)(O)O)[C@@H](O)[C@H]1O` [AMP], for which the “collision cross section (N2)” value in data set [1] ([M+H]+) is 167 Å². On the same count and under the same terms, then `N[C@@H](CC(=O)O)C(=O)O` [Aspartic acid], with 122 Å². On to `C[N+](C)(C)C[C@H](O)CC(=O)[O-]` [Carnitine], for which the “collision cross section (N2)” value in data set [1] ([M+H]+) was 130 Å². As to `CCCCCCCCCCCCCCCC(=O)OC[C@H](CO[C@@H]1O[C@H](CO[C@H]2O[C@H](CO)[C@H](O)C(O)C2O)[C@H](O)C(O)C1O)OC(=O)CCCCCCCCCCCCCCC` (some centres undefined) [DGDG(32:0)], the “collision cross section (N2)” value in data set [2] ([M+NH4]+) stood at 308.5 Å²; in data set [2] ([M+Na]+) it was 306.7 Å². `CCCCCCCCCCCCC=CCC=CCC(=O)OC[C@H](CO[C@@H]1O[C@H](CO[C@H]2O[C@H](CO)[C@H](O)C(O)C2O)[C@H](O)C(O)C1O)OC(=O)CC=CCCCCCCCCCCCCCC` (some centres undefined) [DGDG(35:1)]: in data set [2] (M+NH4]+), the “collision cross section (N2)” value is 317.4 Å². For the molecule `CCCCCCCCCCCCCCCCCC(=O)OC[C@H](CO[C@@H]1O[C@H](CO[C@H]2O[C@H](CO)[C@H](O)C(O)C2O)[C@H](O)C(O)C1O)OC(=O)CCCCCCCCCCCCCCCCC` (some centres undefined) [DGDG(36:0)], in data set [2] ([M+NH4]+), the “collision cross section (N2)” value worked out at 326.8 Å². `O=P(O)(O)OC[C@H](O)CO` [Glycerol monophosphate]: in data set [1] ([M+Na]+), the “collision cross section (N2)” value stood at 132 Å². For the molecule `CCCCCCCCCCCCCCC(=O)OCC(COP(=O)([O-])OCC(O)COC(=O)C(N)CCCC[NH3+])OC(=O)CCCCCCCCCCCCC` (centres undefined) [LysPG(29:0)], the “collision cross section (N2)” value in data set [2] ([M+H]+) came out at 287.8 Å². The same measure, in the same setting: then `CCCCCC/C=C\CCCCCCCCCC(=O)OCC(COP(=O)([O-])OCC(O)COC(=O)C(N)CCCC[NH3+])OC(=O)CCCCCCC/C=C\CCCCCC` (centres undefined) [LysPG(34:2)], with 298.4 Å². Same read-out and setting: in the case of `CCCCCCCCCCCCCCCCCCCC(=O)OC(COC(=O)CCCCCCCCCCCCCC)COP(=O)([O-])OCC(O)COC(=O)C(N)CCCC[NH3+]` (centres undefined) [LysPG(35:0)] it was 305.4 Å². In the case of `NCCCC[C@H](N)C(=O)O` [Lysine], the “collision cross section (N2)” value in data set [1] ([M+H]+) turned out to be 127 Å². In the case of `CC/C=C\C/C=C\C/C=C\CCCCCCCC(=O)OC[C@H](CO[C@@H]1O[C@H](CO)[C@H](O)C(O)C1O)OC(=O)CCCCC/C=C\CCCCCCCC` (some centres undefined) [MGDG(16:1/18:3)], the results for the “collision cross section (N2)” value in data set [2] ([M+NH4]+) and in data set [2] ([M+Na]+) were 281.2 Å² and 278.6 Å², respectively. On to `CC/C=C\C/C=C\C/C=C\CCCCCCCC(=O)OC[C@H](CO[C@@H]1O[C@H](CO)[C@H](O)C(O)C1O)OC(=O)CCCCCCC/C=C\C/C=C\C/C=C\CC` (some centres undefined) [MGDG(18:3/18:3)], for which the “collision cross section (N2)” value in data set [2] ([M+CH3COO]-) worked out at 286.3 Å²; in data set [2] ([M+Cl]-) it was 278.5 Å²; in data set [2] ([M+K]+), 282.5 Å²; in data set [2] ([M+NH4]+), 284.1 Å²; in data set [2] ([M+Na]+), 281 Å²; in data set [2] ([M-H]-) it was 276.2 Å². As to `CSC[C@H]1O[C@@H](n2cnc3c(N)ncnc32)[C@H](O)[C@@H]1O` [Methylthioadenosine], the “collision cross section (N2)” value in data set [1] ([M+H]+) worked out at 167 Å². Still for that read-out and setting: in the case of `NCCC[C@H](N)C(=O)O` [Ornithine] it was 121 Å². In the case of `CCCCCCCCCCCCCCCCCCC(=O)OC[C@H](COP(=O)(O)O)OC(=O)CCCCCCCCCCCC` [PA(16:0/16:0)], the “collision cross section (N2)” value in data set [2] ([M-H]-) worked out at 251.4 Å². Same read-out and setting: then `CCCCCCCCCCCCCCCCC(=O)OC[C@H](COP(=O)(O)O)OC(=O)CCCCCCCCCCCC` [PA(30:0)], with 244.9 Å²; and `CCCCCCCCCCCCCCCCCCC(=O)OC[C@H](COP(=O)(O)O)OC(=O)CCCCCCCCCCCC` [PA(32:0)], with 251.1 Å².

Turning to `CCCCCCCCCCCCCCCCCCC(=O)O[C@H](COC(=O)CCCCCCCCCCCCCCCC)COP(=O)(O)O` [PA(36:0)], in data set [2] ([M-H]-), the “collision cross section (N2)” value is 264.1 Å². Turning to `Nc1ccc(C(=O)O)cc1` [PABA], the “collision cross section (N2)” value in data set [1] ([M+H]+) came to 131 Å². In the case of `CCCCCCCCCCCCCCCC(=O)O[C@H](COC(=O)CCCCCCCCCCCC)COP(=O)(O)OC[C@@H](O)CO` [PG(29:0)], the “collision cross section (N2)” value in data set [2] ([M-H]-) was found to be 255.2 Å².

Regarding `CCCCCCCCCCCCCCCCCC(=O)OC[C@H](COP(=O)(O)OC[C@@H](O)CO)OC(=O)CCCCCCCCCCC` [PG(30:0)], the “collision cross section (N2)” value worked out at 258.7 Å² in data set [2] ([M-H]-) and 265.6 Å² in data set [3]. Regarding `CCCC/C=C\CCCCCCCC(=O)OC[C@H](COP(=O)(O)OC[C@@H](O)CO)OC(=O)CCCCCCC/C=C\CCCCCC` [PG(30:2)], in data set [2] ([M-H]-), the “collision cross section (N2)” value is 255 Å². For `CCCCCCCCCCCCCCCCCCC(=O)O[C@H](COC(=O)CCCCCCCCCCC)COP(=O)(O)OC[C@@H](O)CO` [PG(31:0)], in data set [2] ([M-H]-), the “collision cross section (N2)” value turned out to be 262 Å². For `CCCCC/C=C\C/C=C\CCCCCCCC(=O)O[C@H](COC(=O)CCCCCCCCCCCC)COP(=O)(O)OC[C@@H](O)CO` [PG(31:2)], the “collision cross section (N2)” value in data set [2] ([M-H]-) was 257.9 Å².

Turning to `CCCC/C=C\CCCCCCCC(=O)OC[C@H](COP(=O)(O)OC[C@@H](O)CO)OC(=O)CCCCCCC/C=C\CCCCCCCC` [PG(32:2)], the “collision cross section (N2)” value in data set [4] ([M+Na]+) worked out at 269.8 Å²; in data set [4] ([M-H]-) it was 261 Å²; in data set [2] ([M-H]-), 261.4 Å². Regarding `CCCCCCCC/C=C\CCCCCCCCCC(=O)O[C@H](COC(=O)CCCCCCCCCCCC)COP(=O)(O)OC[C@@H](O)CO` [PG(33:1)], the “collision cross section (N2)” value stood at 267 Å² in data set [2] ([M-H]-), 273.7 Å² in data set [3] and 266.4 Å² in data set [5] ([M-H]-). Regarding `CCCCCCCCCCCCCCCCCCCCC(=O)O[C@H](COC(=O)CCCCCCCCCCCCC)COP(=O)(O)OC[C@@H](O)CO` [PG(35:0)], in data set [2] ([M-H]-), the “collision cross section (N2)” value is 275 Å².

Take `CCCC/C=C\CCCCCCCC(=O)OC[C@H](COP(=O)(O)OC[C@@H](O)CO)OC(=O)CCCCCCCCCCCCCCCCCCCC` [PG(35:1)]: the “collision cross section (N2)” value in data set [2] ([M-H]-) is listed as 273.2 Å²; in data set [3], 280.1 Å²; in data set [5] ([M-H]-), 272.7 Å². In the case of `CCCCCC/C=C\CCCCCCCC(=O)OC[C@H](COP(=O)(O)OC[C@@H](O)CO)OC(=O)CCCCCCCCCCCCCCCCCCC` [PG(36:1)], the “collision cross section (N2)” value in data set [4] ([M+Na]+) is 287.5 Å²; in data set [4] ([M-H]-), 275.7 Å²; in data set [2] ([M-H]-), 275.7 Å²; in data set [3], 282.9 Å² and 284.1 Å²; in data set [5] ([M+H]+), 292 Å²; in data set [5] ([M+NH4]+), 292.5 Å². For the same molecule, the “collision cross section (N2)” value in data set [5] ([M+Na]+) was 287.5 Å². Regarding `CCCCC/C=C\CCCCCCCC(=O)O[C@H](CO/C=C\CCCCCCCCCCCCCC)COP(=O)(O)OC[C@@H](O)CO` [PG(p31:1)], the “collision cross section (N2)” value in data set [2] ([M-H]-) was 258.5 Å². The same measure, in the same setting: in the case of `CCCCCCC/C=C\CCCCCCCC(=O)O[C@H](CO/C=C\CCCCCCCCCCCCCC)COP(=O)(O)OC[C@@H](O)CO` [PG(p33:1)] it was 265.1 Å²; in that of `CCCCC/C=C\C/C=C\C/C=C\CCCCC(=O)O[C@H](CO/C=C\CCCCCCCCCCCCCC)COP(=O)(O)OC[C@@H](O)CO` [PG(p34:3)], 264.8 Å². In the case of `CC(C)(CO)[C@@H](O)C(=O)NCCC(=O)O` [Pantothenic acid], the “collision cross section (N2)” value in data set [1] ([M+H]+) was 145 Å².
